From patent publication US9371331B2, “Modulators of methyl modifying enzymes, compositions and uses thereof” (Constellation Pharmaceuticals, Inc., priority 2012, dated 2016)
Like-named read-outs stand apart in the source and are kept apart here.

What was measured:
EZH2 (rPRC2) = EZH2 (rPRC2) (Homo sapiens, UniProt Q15910); experiment: EZH2 assay: rPRC2, biotinylated oligonucleosomes, 3H SAM methyl transfer (FlashPlate scintillation); type: biochemical; conditions: biotinylated oligonucleosome substrate
[1] = tested on: H3K27me3 mark in HeLa cells; experiment: H3K27me3 MSD Hela Assay; type: cell-based; conditions: read-out: H3K27me3_MSD_HeLa_ (EC50)
Description: Trypsinized HeLa cells were counted and diluted in 10% DMEM (Life Technologies, Cat. #10569) to 5000 cells/75 μL. Seventy-five […] of cells were place in each well of a 96-well flat-bottomed plate and incubated at 37° C. for 4 hours. Twenty-five μL of test compound (at various concentrations) was added to the cells and incubation continued at 37° C. for 96 hours. Media was then removed and the cells rinsed once with ice cold PBS. Forty μL of ice-cold MSD Buffer AT (10 mM HEPES, pH 7.9, 5 mM MgCl2, 0.25M sucrose, Benzonase (1:10000), 1% Triton X-100 supplemented with fresh 1× Protease Inhibitor cocktail and 1 mM 4-(2-Aminoethyl)benzenesulfonyl fluoride hydrochloride (AEBSF)) was added to each well and the plates placed on ice for 30 minutes. Ten μL of 5M NaCl was then added to each well and incubation on ice continued for another 15 minutes. The material in each well was suspended pipetting up and down and then transferred to a new 96 well plate. The emptied wells were rinsed with 150 uL ice-cold 20 mM Tris pH 7.5, 1 mM EDTA, 1 mM EGTA, supplemented with fresh 1× Protease Inhibitor cocktail and 1 mM AEBSF (“NO salt NO detergent buffer) and transferred to the respective wells in the new plate. Three hundred μL of NO Salt NO detergent buffer was then added to each well of lysates and the plates frozen at −80° C.
On the same day, an appropriate number of MSD standard bind 96-well plates were coated with 30 μL/well of total H3 capture antibody (Millipore. Cat #MAB3422) at 1 μg/mL concentration in PBS. The antibody solution was evenly distributed first by tapping gently on the sides of the plates and then by shaking the plates for a few minutes at 1000 rpm. Antibody coated plates were stored at 4° C. overnight.
The next day the lysates are thawed to RT. The antibody coated MSD plates are washed 3× with TBS-T (Tris-buffered saline (Fisher Scientific, Cat #BP2471-1)+0.2% Tween-20). One-hundred fifty μL of 5% Blocker A in TBS-T is added to each well. The wells are covered and shaken on a shaker at RT for one hour. The Blocker A step is repeated a second time. After removing the blocker, 25 μL of cell lysate is transferred into each antibody coated well. The plates are shaken for 2 hours at RT, the lysate removed and the plates again washed with Blocker A in TBS-T. Twenty-five μL of appropriate freshly prepared antibody mix (including both primary and secondary antibodies) is added to each well and the plates shaken for 1 hour at RT.
Both H3 antibodies were obtained from Cell Signalling (Cat #s 4499 and 9733). The goat anti-rabbit antibody was obtained from Meso-Scale Discovery (Cat #R32AB-1).
The antibody mix was then removed and the wells washed with Blocker A. One hundred-fifty μL of freshly prepared 1×MSD Read Buffer (Meso-Scale Discovery; Cat #R927C-2) was then added to each well and the plates read on a MSD Sector 2400 Plate Reader.
Data was analyzed using Assay Assistant (Constellation Pharmaceuticals In-house product) and Activity Base (IDBS Ltd, Surrey, UK) template. Data files were imported to Assay Assistant and assay conditions were specified. A unique Analysis ID was created and the data files exported to Activity Base. An analysis template was created on Activity Base to measure dose-dependent inhibition of H3K27me3 mark and cell viability respectively. Readout of DMSO wells were used to normalize the data. Resulting curves were fitted using Activity base software Model 205 (IDBS Ltd. Surrey, UK). The data was checked for quality, validated and integrated in excel format using SARview (IDBS Ltd, Surrey, UK).

Y641N EZH2 = Y641N EZH2 (Homo sapiens, UniProt Q15910, Y641N); experiment: Y641N EZH2 assay: as EZH2 assay, with reconstituted H3K27Me2 oligonucleosomes as substrate; type: biochemical
[2] = EZH2 IC50, wild-type EZH2 (rPRC2)
[3] = Y641N EZH2 IC50, Y641N mutant EZH2, H3K27Me2 oligonucleosome substrate

Y641N EZH2, sequence (Q15910 whole entry Y641N): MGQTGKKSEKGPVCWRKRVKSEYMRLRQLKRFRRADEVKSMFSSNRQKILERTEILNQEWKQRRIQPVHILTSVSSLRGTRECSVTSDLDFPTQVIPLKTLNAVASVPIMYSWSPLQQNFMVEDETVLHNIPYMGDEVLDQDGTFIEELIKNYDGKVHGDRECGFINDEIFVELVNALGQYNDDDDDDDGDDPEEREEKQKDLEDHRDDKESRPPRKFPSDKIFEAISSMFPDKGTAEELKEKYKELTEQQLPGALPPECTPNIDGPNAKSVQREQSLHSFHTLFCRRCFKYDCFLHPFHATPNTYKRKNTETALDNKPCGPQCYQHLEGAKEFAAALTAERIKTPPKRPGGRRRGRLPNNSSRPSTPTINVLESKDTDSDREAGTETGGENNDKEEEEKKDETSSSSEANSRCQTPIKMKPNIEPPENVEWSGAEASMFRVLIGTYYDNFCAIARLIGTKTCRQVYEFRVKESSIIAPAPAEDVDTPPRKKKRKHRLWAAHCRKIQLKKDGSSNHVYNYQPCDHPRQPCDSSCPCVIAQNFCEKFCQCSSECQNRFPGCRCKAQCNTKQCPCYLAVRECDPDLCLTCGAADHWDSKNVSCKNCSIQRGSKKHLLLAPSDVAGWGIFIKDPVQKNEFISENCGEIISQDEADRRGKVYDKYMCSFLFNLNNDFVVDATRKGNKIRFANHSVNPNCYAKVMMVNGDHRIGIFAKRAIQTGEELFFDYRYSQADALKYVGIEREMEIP
Y641N EZH2, sequence (O75530 whole entry partner): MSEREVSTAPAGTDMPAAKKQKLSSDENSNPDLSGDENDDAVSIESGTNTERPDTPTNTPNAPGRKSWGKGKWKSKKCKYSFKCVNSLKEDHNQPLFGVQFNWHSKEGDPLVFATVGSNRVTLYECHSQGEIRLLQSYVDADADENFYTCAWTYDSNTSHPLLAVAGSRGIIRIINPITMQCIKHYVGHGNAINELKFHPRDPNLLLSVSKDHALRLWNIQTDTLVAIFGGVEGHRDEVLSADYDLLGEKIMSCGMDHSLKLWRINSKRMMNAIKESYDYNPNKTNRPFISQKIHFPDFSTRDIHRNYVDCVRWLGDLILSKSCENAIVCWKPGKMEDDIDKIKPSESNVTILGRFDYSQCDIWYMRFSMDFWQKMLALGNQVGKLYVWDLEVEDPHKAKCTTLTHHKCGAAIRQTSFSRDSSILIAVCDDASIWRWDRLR
Y641N EZH2, sequence (Q15022 whole entry partner): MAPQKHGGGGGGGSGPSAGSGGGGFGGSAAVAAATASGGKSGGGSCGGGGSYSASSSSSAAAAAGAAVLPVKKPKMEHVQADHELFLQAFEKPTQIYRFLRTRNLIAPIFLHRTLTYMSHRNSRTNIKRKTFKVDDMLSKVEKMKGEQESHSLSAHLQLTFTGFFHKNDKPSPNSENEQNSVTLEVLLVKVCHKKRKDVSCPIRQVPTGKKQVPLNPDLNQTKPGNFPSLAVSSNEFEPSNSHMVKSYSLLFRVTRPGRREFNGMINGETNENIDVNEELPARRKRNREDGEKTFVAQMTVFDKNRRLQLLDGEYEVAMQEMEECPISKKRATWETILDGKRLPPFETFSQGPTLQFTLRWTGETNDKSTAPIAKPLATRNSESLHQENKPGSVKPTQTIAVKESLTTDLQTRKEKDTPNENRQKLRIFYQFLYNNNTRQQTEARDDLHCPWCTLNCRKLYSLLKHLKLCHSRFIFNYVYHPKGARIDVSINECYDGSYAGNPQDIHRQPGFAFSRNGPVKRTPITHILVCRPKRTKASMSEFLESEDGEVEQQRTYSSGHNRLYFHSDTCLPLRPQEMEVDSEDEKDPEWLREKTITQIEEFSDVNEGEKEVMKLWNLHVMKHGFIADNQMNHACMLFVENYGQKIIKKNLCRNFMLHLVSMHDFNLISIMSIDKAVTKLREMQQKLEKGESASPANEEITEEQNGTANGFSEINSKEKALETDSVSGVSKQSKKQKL
EZH2 (rPRC2), sequence (Q15910 whole entry): as the sequence (Q15910 whole entry Y641N) above, with N641Y counted along it
EZH2 (rPRC2), sequence (O75530 whole entry partner): as the sequence (O75530 whole entry partner) above
EZH2 (rPRC2), sequence (Q15022 whole entry partner): as the sequence (Q15022 whole entry partner) above

Cc1ccc(C(C)n2c(C)c(C(=O)NCc3c(C)cc(C)[nH]c3=O)c3ccccc32)cc1 (racemic) [Compound 172, (±)-N-((4,6-dimethyl-2-oxo-1,2-dihydropyridin-3-yl)methyl)-2-methyl-1-(1-(p-tolyl)ethyl)-1H-indole-3-carboxamide]
IC50 (EZH2 (rPRC2); [2]): < 100 nM
EC50 ([1]; Homo sapiens, HeLa, 96 h): 2000 to 10000 nM
IC50 (Y641N EZH2; [3]): 100 to 1000 nM

CCOCC(C)n1c(C)c(C(=O)NCc2c(OC)cc(C)[nH]c2=O)c2cccnc21 (racemic) [Compound 212, (±)-1-(1-ethoxypropan-2-yl)-N-((4-methoxy-6-methyl-2-oxo-1,2-dihydropyridin-3-yl)methyl)-2-methyl-1H-pyrrolo[2,3-b]pyridine-3-carboxamide]
IC50 (EZH2 (rPRC2); [2]): < 100 nM
EC50 ([1]; Homo sapiens, HeLa, 96 h): 400 to 2000 nM
IC50 (Y641N EZH2; [3]): 100 to 1000 nM

Cc1cc(C)c(CNC(=O)c2c(C)n(C(C)c3ccc(F)cc3)c3ccccc23)c(=O)[nH]1 (racemic) [Compound 166, (±)-N-((4,6-dimethyl-2-oxo-1,2-dihydropyridin-3-yl)methyl)-1-(1-(4-fluorophenyl)ethyl)-2-methyl-1H-indole-3-carboxamide]
IC50 (EZH2 (rPRC2); [2]): < 100 nM
EC50 ([1]; Homo sapiens, HeLa, 96 h): 2000 to 10000 nM
IC50 (Y641N EZH2; [3]): 100 to 1000 nM

COc1cc(C)[nH]c(=O)c1CNC(=O)c1c(C)n(C(C)c2ccccc2)c2cnccc12 (single isomer, unassigned) [Compound 258, (R or S)-N-((4-methoxy-6-methyl-2-oxo-1,2-dihydropyridin-3-yl)methyl)-2-methyl-1-(1-phenylethyl)-1H-pyrrolo[2,3-c]pyridine-3-carboxamide]
IC50 (EZH2 (rPRC2); [2]): < 100 nM
EC50 ([1]; Homo sapiens, HeLa, 96 h): 400 to 2000 nM
IC50 (Y641N EZH2; [3]): < 100 nM

Cc1cc(C)c(CNC(=O)c2c(C)n(C(C)c3ccccc3)c3ncccc23)c(=O)[nH]1 (single isomer, unassigned) [Compound 116, N-((4,6-dimethyl-2-oxo-1,2-dihydropyridin-3-yl)methyl)-2-methyl-1-(1-phenylethyl)-1H-pyrrolo[2,3-b]pyridine-3-carboxamide]
IC50 (EZH2 (rPRC2); [2]): < 100 nM
EC50 ([1]; Homo sapiens, HeLa, 96 h): 400 to 2000 nM
IC50 (Y641N EZH2; [3]): 100 to 1000 nM

Cc1cc(C)c(CNC(=O)c2c(C)n(C(C)c3ccn(C)c(=O)c3)c3ccccc23)c(=O)[nH]1 (racemic) [Compound 222, (±)-N-((4,6-dimethyl-2-oxo-1,2-dihydropyridin-3-yl)methyl)-2-methyl-1-(1-(1-methyl-2-oxo-1,2-dihydropyridin-4-yl)ethyl)-1H-indole-3-carboxamide]
IC50 (EZH2 (rPRC2); [2]): 100 to 1000 nM
EC50 ([1]; Homo sapiens, HeLa, 96 h): > 10000 nM
IC50 (Y641N EZH2; [3]): 100 to 1000 nM

COc1cncc(C(C)n2c(C)c(C(=O)NCc3c(C)cc(C)[nH]c3=O)c3cccnc32)c1 (racemic) [Compound 215, (±)-N-((4,6-dimethyl-2-oxo-1,2-dihydropyridin-3-yl)methyl)-1-(1-(5-methoxypyridin-3-yl)ethyl)-2-methyl-1H-pyrrolo[2,3-b]pyridine-3-carboxamide]
IC50 (EZH2 (rPRC2); [2]): 100 to 1000 nM
EC50 ([1]; Homo sapiens, HeLa, 96 h): 2000 to 10000 nM
IC50 (Y641N EZH2; [3]): 1000 to 10000 nM

COc1cc(C)[nH]c(=O)c1CNC(=O)c1c(C)n(C(C)C2CCCNC2)c2ccccc12 (stereo not drawn) [Compound 315, N-((4-methoxy-6-methyl-2-oxo-1,2-dihydropyridin-3-yl)methyl)-2-methyl-1-(1-(piperidin-3-yl)ethyl)-1H-indole-3-carboxamide]
IC50 (EZH2 (rPRC2); [2]): < 100 nM
EC50 ([1]; Homo sapiens, HeLa, 96 h): > 10000 nM
IC50 (Y641N EZH2; [3]): 100 to 1000 nM

Cc1cc(C)c(CNC(=O)c2c(C)n(C(C)c3ccccc3)c3cnccc23)c(=O)[nH]1 (racemic) [Compound 203, (±)-N-((4,6-dimethyl-2-oxo-1,2-dihydropyridin-3-yl)methyl)-2-methyl-1-(1-phenylethyl)-1H-pyrrolo[2,3-c]pyridine-3-carboxamide]
IC50 (EZH2 (rPRC2); [2]): < 100 nM
EC50 ([1]; Homo sapiens, HeLa, 96 h): 2000 to 10000 nM
IC50 (Y641N EZH2; [3]): 100 to 1000 nM

COc1cc(C)[nH]c(=O)c1CNC(=O)c1c(C)n(C(C)C(OC)C2CC2)c2ncccc12 (stereo not drawn) [Compound 283, 1-(1-cyclopropyl-1-methoxypropan-2-yl)-N-((4-methoxy-6-methyl-2-oxo-1,2-dihydropyridin-3-yl)methyl)-2-methyl-1H-pyrrolo[2,3-b]pyridine-3-carboxamide]
IC50 (EZH2 (rPRC2); [2]): < 100 nM
EC50 ([1]; Homo sapiens, HeLa, 96 h): 400 to 2000 nM
IC50 (Y641N EZH2; [3]): 100 to 1000 nM

Cc1cc(C)c(CNC(=O)c2c(C)n(C(C)C3CC3)c3ncccc23)c(=O)[nH]1 (racemic) [Compound 211, (±)-1-(1-cyclopropylethyl)-N-((4,6-dimethyl-2-oxo-1,2-dihydropyridin-3-yl)methyl)-2-methyl-1H-pyrrolo[2,3-b]pyridine-3-carboxamide]
IC50 (EZH2 (rPRC2); [2]): < 100 nM
EC50 ([1]; Homo sapiens, HeLa, 96 h): 400 to 2000 nM
IC50 (Y641N EZH2; [3]): 100 to 1000 nM

COc1cc(C)[nH]c(=O)c1CNC(=O)c1c(C)n(C2CCCC2)c2ccccc12 [Compound 324, 1-cyclopentyl-N-((4-methoxy-6-methyl-2-oxo-1,2-dihydropyridin-3-yl)methyl)-2-methyl-1H-indole-3-carboxamide]
IC50 (EZH2 (rPRC2); [2]): < 100 nM
EC50 ([1]; Homo sapiens, HeLa, 96 h): 2000 to 10000 nM
IC50 (Y641N EZH2; [3]): 100 to 1000 nM

COc1cc(C)[nH]c(=O)c1CNC(=O)c1c(C)n([C@H](C)[C@H](OC)C2CC2)c2ncccc12 (single isomer, unassigned) [Compound 286, 1-((1R or S, 2R or S)-1-cyclopropyl-1-methoxypropan-2-yl)-N-((4-methoxy-6-methyl-2-oxo-1,2-dihydropyridin-3-yl)methyl)-2-methyl-1H-pyrrolo[2,3-b]pyridine-3-carboxamide]
IC50 (EZH2 (rPRC2); [2]): < 100 nM
EC50 ([1]; Homo sapiens, HeLa, 96 h): 400 to 2000 nM
IC50 (Y641N EZH2; [3]): 100 to 1000 nM

COc1ccc2c(C(=O)NCc3c(OC)cc(C)[nH]c3=O)c(C)n(C(C)C3CCOCC3)c2c1 (single isomer, unassigned) [Compound 321, (R or S)-6-methoxy-N-((4-methoxy-6-methyl-2-oxo-1,2-dihydropyridin-3-yl)methyl)-2-methyl-(1-(tetrahydro-2H-pyran-4-yl)ethyl)-1 H-indole-3-carboxamide]
IC50 (EZH2 (rPRC2); [2]): < 100 nM
EC50 ([1]; Homo sapiens, HeLa, 96 h): < 400 nM
IC50 (Y641N EZH2; [3]): < 100 nM

Cc1cc(C)c(CNC(=O)c2c(C)n(C(C)c3cccc(C#N)c3)c3ccccc23)c(=O)[nH]1 (single isomer, unassigned) [Compound 227, (R or S)-1-(1-(3-cyanophenyl)ethyl)-N-((4,6-dimethyl-2-oxo-1,2-dihydropyridin-3-yl)methyl)-2-methyl-1H-indole-3-carboxamide]
IC50 (EZH2 (rPRC2); [2]): < 100 nM
EC50 ([1]; Homo sapiens, HeLa, 96 h): 400 to 2000 nM
IC50 (Y641N EZH2; [3]): < 100 nM

COCC(C)n1c(C)c(C(=O)NCc2c(OC)cc(C)[nH]c2=O)c2ccccc21 (stereo not drawn) [Compound 219, N-((4-methoxy-6-methyl-2-oxo-1,2-dihydropyridin-3-yl)methyl)-1-(1-methoxypropan-2-yl)-2-methyl-1H-indole-3-carboxamide]
IC50 (EZH2 (rPRC2); [2]): < 100 nM
EC50 ([1]; Homo sapiens, HeLa, 96 h): 400 to 2000 nM
IC50 (Y641N EZH2; [3]): < 100 nM

(±)-1-(1-(3-cyanophenyl)ethyl)-N-(4,6-dimethyl-2-oxo-1,2-dihydropyridin-3-yl)-2-methyl-1H-indole-3-carboxamide [Compound 175]
IC50 (EZH2 (rPRC2); wild-type EZH2 (rPRC2), read-out: EZH2 IC50): < 100 nM
EC50 ([1]; HeLa cells, MSD, 96 hours): 400 to 2000 nM
IC50 (Y641N EZH2; Y641N mutant EZH2, H3K27Me2 oligonucleosome substrate, read-out: Y641N EZH2 IC50): < 100 nM

Cc1cc(C)c(CNC(=O)c2c(C)n(C(C)c3cccc(Cl)c3)c3ccccc23)c(=O)[nH]1 (racemic) [Compound 181, (±)-1-(1-(3-chlorophenyl)ethyl)-N-((4,6-dimethyl-2-oxo-1,2-dihydropyridin-3-yl)methyl)-2-methyl-1H-indole-3-carboxamide]
IC50 (EZH2 (rPRC2); [2]): < 100 nM
EC50 ([1]; Homo sapiens, HeLa, 96 h): 400 to 2000 nM
IC50 (Y641N EZH2; [3]): < 100 nM
